This series can be described thus: Extraction of organic standards from spiked JSC-1 rock with aqueous polysorbate 80 solution, GC-MS. In kind it is physicochemical. The following applies: ultrasonication 20 minutes. Here is the method:
JSC-1, a Martian and lunar analogue (McKay et al. (1993) JSC-1: A new lunar regolith simulant. Lunar and Planetary Institute Conference Abstracts), was spiked with various hydrocarbon compound classes (Table 1 below). All are known to be soluble in organic solvents, and are considered mostly insoluble in water with the exception of atrazine. 1 ml of a mixture of 10.0 ng ml^−1 hydrocarbon standards were spiked on to 1 g of rock, the concentrations of each non-aromatic standard amounted to 10.0 ng g^−1 rock (10 ppb). Terphenyl (an aromatic compound) was used as a second quantitation standard, added just before analysis in order to establish extraction efficiencies for the JSC-1 rock.
1 g samples of spiked JSC-1 rock were placed in test tubes, with 3 ml solvent and the mixture subjected to ultrasonication (20 minutes). The solvent was an aqueous surfactant solution containing polysorbate 80 in various amounts (either 1.5 g/L or 2.5 g/L), as set out in Table 1 below. The surfactant was dissolved either in water that contains 20% methanol (referred to in Table 1 as “w MeOH”) or pure water (“w/o MeOH”). After sonication the mixture was centrifuged (2500 rpm×10 min) and the supernatant pipetted into a test tube. A liquid/liquid extraction was then performed with dichloromethane, the dichloromethane was then blown down via nitrogen to 1 ml ready for further analysis by gas chromatography-mass spectrometry.
The organic constituents of extracts were separated on an Agilent technologies 6890N gas chromatograph. Extracts were dissolved in 1 ml dichloromethane and 1 μl was introduced via splitless injection into a HP-5 (0.25 mm×30 m×[…]) capillary column in a helium carrier gas. The column oven was operated with a temperature programme starting at 50° C. for 1 min followed by a ramp of 5° C. min−1 until 310° C. where the temperature was held for 20 min. Individual compounds were identified by introducing the column effluent into an Agilent technologies 5973 inert mass selective detector operated with a 12 min solvent delay and a scan range of m/z 50-550.
The extraction efficiency is measured as the percentage of the organic compounds that are extracted as compared to the amount originally present in the rock. […] Other variables include temperature and pressure. As can also be seen from Table 1, the optimum recovery appears to take place between about 0.5 an 3 grams per litre of polysorbate 80, which corresponds to 40 to 230 times the cmc of polysorbate 80.

The mark [1] stands for this setting: polysorbate 80 1.5 g/L, with MeOH (water containing 20% methanol).
Setting [2] is: polysorbate 80 1.5 g/L, without MeOH (pure water).
[3] abbreviates: polysorbate 80 2.5 g/L, with MeOH (water containing 20% methanol).
Setting [4] is: polysorbate 80 2.5 g/L, without MeOH (pure water).

In the case of `CC(C)=CCC/C(C)=C/CC/C(C)=C/CC/C=C(\C)CC/C=C(\C)CCC=C(C)C` [Squalene], the Extraction efficiency reads like this: under setting [1], 6.11%; under setting [2], 19.71%; under setting [3], 0.58%; under setting [4], 9.11%.
Take `c1ccc2c(c1)c1cccc3ccc4cccc2c4c31` [Benzo(e)pyrene]: the Extraction efficiency by setting is: under setting [1], 2.38%; under setting [2], 0%; under setting [3], 20.33%; under setting [4], 30.55%.
For `c1ccc2cc3ccccc3cc2c1` [Anthracene] the same measures were 0%, 0%, 5.2% and 22.86%.
Regarding `CCC(C)CCCC(C)CCCC(C)CCCC(C)C` (stereo not shown) [Phytane], the Extraction efficiency is 8.91% under setting [1], 29.08% under setting [2], 0.93% under setting [3] and 10.7% under setting [4].
Consider `CCNc1nc(Cl)nc(NC(C)C)n1` [Atrazine], for which the Extraction efficiency reads like this: under setting [1], 7.35%; under setting [2], 12.6%; under setting [3], 5.4%; under setting [4], 5.62%.
The corresponding values for `CC[C@H](/C=C/[C@@H](C)[C@H]1CC[C@H]2[C@@H]3CC=C4C[C@@H](O)CC[C@]4(C)[C@H]3CC[C@]12C)C(C)C` [Stigmasterol] are 0%, 0%, 3.06% and 10.88%.
`CCCCCCCCCCCCCCCC` [Hexadecane] had an Extraction efficiency under setting [1] of 4.21%, an Extraction efficiency under setting [2] of 14.2%, an Extraction efficiency under setting [3] of 0.54% and an Extraction efficiency under setting [4] of 0.73%.

(Values after patent US20120132594A1, “AQUEOUS SOLVENTS FOR HYDROCARBONS AND OTHER HYDROPHOBIC COMPOUNDS” (IMPERIAL INNOVATIONS LIMITED, priority 2009, published 2012).)
